# Reference: US10829493B2, “Compositions and methods for treating KIT- and PDGFRA-mediated diseases” (Blueprint Medicines Corporation, priority 2019, dated 2020)
# Read-outs that look alike come from different tables or passages of the source.
# Assays:
# [1] = Pharmacokinetics following single intravenous and oral administration in rats; type: in vivo, Sprague-Dawley rats
# Description: Assessment of pharmacokinetics following single intravenous and oral administration in rats: 3 Sprague-Dawley rats were employed for each compound for each route of administration (iv or oral). For iv administration, 1 mg/kg (dose volume=5 mL/kg) of each compound was administered by intravenous route via […] injection; whereas for oral route, 2.5 mg/kg (dose volume=5 mL/kg) was administered via oral gavage. Blood samples were obtained via tail vein at predose, 0.083, 0.25, 0.5, 1, 2, 4 and 8 hr. In addition, blood samples were also obtained at 24 hr via cardiac puncture (under anesthesia with Isoflurane) for terminal bleeding. All the blood samples were analyzed for the drug concentrations via LC/MS-MS. Pharmacokinetic parameters such as Cmax, Tmax, AUClast, AUCinf, MRTlast, MRTinf, T1/2, Vss and CL were obtained by non-compartmental analysis (NCA). Further, unbound clearance (CLu) was obtained as follows: Clu=Cl/fu,plasma.
# % F was calculated as follows: % F=[AUCinf(oral)/Dose]/[AUCinf(iv)/Dose]*100 (Zhivkova & Doytchinova, Molecular Pharmaceuticals 10:3758-68 (2013)).
# CYP2C9 = CYP2C9 (Homo sapiens (Human), UniProt P11712); assay: CYP inhibition in human liver microsomes, CYP2C9 (diclofenac); type: in vitro ADME; settings: pooled human liver microsomes, substrate diclofenac
# Description: (§1) In vitro studies in human liver microsomes were run according the standard method. […] The samples were then analyzed by LC-MS/MS for the quantification of the probe substrate left after the reaction and the IC50 values were determined by non-linear regression. The substrates for CYP2C9, CYP2D6, CYP3A4 were diclofenac, dextromethorphan and midazolam/testosterone respectively.
# CYP3A4 = CYP3A4 (Homo sapiens (Human), UniProt P08684); assay: CYP inhibition in human liver microsomes, CYP3A4 (midazolam/testosterone); type: in vitro ADME
# Description: as §1
# KIT D816V [2] = biological target: KIT D816V (Homo sapiens (Human), UniProt P10721, D816V); assay: KIT D816V biochemical enzymatic activity assay (EZReader 2 mobility shift); settings: at APPKM for ATP, 20 μM ATP, 60 minutes
# Source text: (§2) PDGFRα and KIT enzymatic activity was monitored using the Perkin Elmer electrophoretic mobility shift technology platform, the EZReader 2.
# (§3) Within the linear, steady-state phase of the kinase enzymatic reaction, the mixed pool of phosphorylated (product) and non-phosphorylated (substrate) peptides was passed through the microfluidic system of the PerkinElmer EZ Reader 2, under an applied electric potential difference. The presence of the phosphate group on the product peptide provided a difference in mass and charge between that of the substrate peptide, resulting in a separation of the substrate and product pools in the sample (Perrin et al., Expert Opin Drug Discovery 2010 Jan. 5(1):51-63).
# (§4) As the product and substrate peptide mixture passes the lasers within the instrument, these pools are detected (λex=488 nm, λem=568 nm) and resolved as separate peaks. The ratio between these peaks reflects the activity of the compound at that concentration, in that well, under those conditions.
# (§5) All test articles were dissolved in 100% DMSO at a stock concentration of 10 mM. A 100×, 10-point, 4-fold serial dilution of all test compounds was created in 100% DMSO, starting at a relevant concentration, usually 1 mM. A volume of 0.130 μL of each concentration was transferred to the relevant well of a 384-well assay plate (Greiner 781 201) using a TTPLabtech Mosquito nano-liter dispenser. Using the Multidrop, the remaining constituents of the reaction were then added to the 0.130 μL of compound as follows:
# The plate was read on a Caliper EZReader 2.
# PDGFRα D842V = PDGFRα D842V (Homo sapiens (Human), UniProt P16234, D842V); assay: PDGFRα D842V biochemical enzymatic activity assay (EZReader 2 mobility shift); settings: at APPKM for ATP, 25 μM ATP, 90 minutes
# Source text: as §2, §3, §4
# Inhibition of KIT (D816V) PDGFRα (D842V) Mutant Biochemical Enzymatic Activity
# as §5
# The reaction was stopped by the addition of 70 μl of Stop buffer (100 mM HEPES pH 7.5, 0.015% Brij 35, 35 mM EDTA and 0.2% of Coating Reagent 3, Caliper Lifesciences). The plate was read on a Caliper EZReader 2.
# KIT D816V [3] = biological target: KIT D816V (Homo sapiens (Human), UniProt P10721, D816V/V560G); assay: HMC1.2 autophosphorylation assay (phospho-Y719 KIT AlphaLISA); type: cell-based; settings: HMC1.2 cell line, KIT autophosphorylation at tyrosine 719, 90 minutes; read-out: KIT (P-KIT HMC1.2 (nM))
# Description: 10,000 HMC1.2 cells were incubated in 22 μL culture media (phenol-red free IMDM, no serum) in each well of a 384-well plate and serum starved overnight in a tissue culture incubator (5% CO2, 37° C.). […] 10 μL of 100 μg/mL streptavidin donor beads (Perkin Elmer) were added to each well, blocked from light with solid black adhesive and shaken at 300 rpm at room temperature for 2 hours. Fluorescence signal was obtained on Envision (Perkin Elmer) by AlphaScreen 384 well HTS protocol.
# wt KIT kinase = wt KIT kinase (Homo sapiens (Human), UniProt P10721); assay: Wild-type KIT binding assay (Kd determination, phage-tagged kinase, qPCR)
# Description: Kd Determinations. For most assays, including wt KIT kinase, kinase-tagged T7 phage strains were prepared in an E. coli host derived from the BL21 strain. E. coli were grown to log-phase and infected with T7 phage and incubated with shaking at 32° C. until lysis. […] The liganded beads were blocked with excess biotin and washed with blocking buffer (SeaBlock (Pierce), 1% BSA, 0.05% Tween 20, 1 mM DTT) to remove unbound ligand and to reduce non-specific binding. […] Test compounds were prepared as 111× stocks in 100% DMSO. Kds were determined using an 11-point 3-fold compound dilution series with three DMSO control points. […] The compounds were then diluted directly into the assays such that the final concentration of DMSO was 0.9%. All reactions were performed in polypropylene 384-well plate. Each was a final volume of 0.02 ml. […] The kinase concentration in the eluates was measured by qPCR.
# Binding Constants (Kds). Binding constants (Kds) were calculated with a standard dose-response curve using the Hill equation: Response=Background+Signal−Background 1+(KdHill Slope/DoseHill Slope). The Hill Slope was set to −1. Curves were fitted using a non-linear least square fit with the Levenberg-Marquardt algorithm.
# CYP3A4, sequence (P08684 whole entry): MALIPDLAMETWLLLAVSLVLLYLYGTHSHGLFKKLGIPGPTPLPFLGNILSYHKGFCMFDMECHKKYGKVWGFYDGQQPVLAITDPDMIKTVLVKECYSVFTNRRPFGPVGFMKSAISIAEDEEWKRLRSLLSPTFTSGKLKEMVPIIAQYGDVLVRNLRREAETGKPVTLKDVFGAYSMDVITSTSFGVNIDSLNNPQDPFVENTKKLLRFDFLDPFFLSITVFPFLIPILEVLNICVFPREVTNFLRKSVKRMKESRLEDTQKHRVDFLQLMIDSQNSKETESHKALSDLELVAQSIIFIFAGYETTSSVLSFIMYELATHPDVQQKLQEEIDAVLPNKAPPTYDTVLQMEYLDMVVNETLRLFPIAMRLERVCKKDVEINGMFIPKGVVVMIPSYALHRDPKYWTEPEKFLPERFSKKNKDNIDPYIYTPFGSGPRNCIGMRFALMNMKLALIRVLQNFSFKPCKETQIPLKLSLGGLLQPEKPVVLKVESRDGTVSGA
# CYP2C9, sequence (P11712 whole entry): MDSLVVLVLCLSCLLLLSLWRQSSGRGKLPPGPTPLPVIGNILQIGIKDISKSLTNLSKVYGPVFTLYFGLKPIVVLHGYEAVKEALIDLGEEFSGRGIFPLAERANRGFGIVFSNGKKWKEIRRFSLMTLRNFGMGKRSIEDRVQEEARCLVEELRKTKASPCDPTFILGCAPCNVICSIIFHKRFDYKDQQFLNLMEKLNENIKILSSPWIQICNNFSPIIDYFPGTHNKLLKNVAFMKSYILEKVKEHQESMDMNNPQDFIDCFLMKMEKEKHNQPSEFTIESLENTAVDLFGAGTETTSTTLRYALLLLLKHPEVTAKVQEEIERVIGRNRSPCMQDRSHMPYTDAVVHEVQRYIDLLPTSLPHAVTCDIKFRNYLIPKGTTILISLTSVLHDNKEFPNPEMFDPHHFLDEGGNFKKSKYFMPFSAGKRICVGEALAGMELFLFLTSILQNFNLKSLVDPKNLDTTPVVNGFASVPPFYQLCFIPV
# KIT D816V (Homo sapiens (Human), UniProt P10721, D816V), sequence (P10721 26-976 D816V): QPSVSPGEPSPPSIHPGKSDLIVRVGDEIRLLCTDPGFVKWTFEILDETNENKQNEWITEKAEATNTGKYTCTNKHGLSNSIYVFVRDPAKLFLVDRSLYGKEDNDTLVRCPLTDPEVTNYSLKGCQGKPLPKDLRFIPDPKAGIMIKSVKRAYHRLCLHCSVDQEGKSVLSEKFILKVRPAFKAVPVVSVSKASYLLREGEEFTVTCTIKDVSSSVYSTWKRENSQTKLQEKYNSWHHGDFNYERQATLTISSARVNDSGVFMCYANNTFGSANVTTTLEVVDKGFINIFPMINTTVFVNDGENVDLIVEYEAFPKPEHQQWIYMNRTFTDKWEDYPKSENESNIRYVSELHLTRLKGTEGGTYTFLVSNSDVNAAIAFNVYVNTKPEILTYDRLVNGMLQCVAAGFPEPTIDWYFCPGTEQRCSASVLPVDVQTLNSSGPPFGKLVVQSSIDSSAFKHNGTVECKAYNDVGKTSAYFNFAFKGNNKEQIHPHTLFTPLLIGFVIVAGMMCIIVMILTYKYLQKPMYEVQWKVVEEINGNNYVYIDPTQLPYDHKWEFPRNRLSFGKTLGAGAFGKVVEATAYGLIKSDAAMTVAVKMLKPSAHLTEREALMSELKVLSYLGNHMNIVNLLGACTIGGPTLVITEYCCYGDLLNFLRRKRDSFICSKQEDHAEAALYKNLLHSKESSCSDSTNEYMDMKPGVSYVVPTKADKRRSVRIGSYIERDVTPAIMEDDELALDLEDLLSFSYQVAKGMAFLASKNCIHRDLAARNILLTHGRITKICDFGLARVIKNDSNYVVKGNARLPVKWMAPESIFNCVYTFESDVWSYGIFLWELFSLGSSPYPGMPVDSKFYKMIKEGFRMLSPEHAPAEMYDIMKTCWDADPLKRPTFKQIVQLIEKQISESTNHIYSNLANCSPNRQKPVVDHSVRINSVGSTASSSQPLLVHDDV
# KIT D816V (Homo sapiens (Human), UniProt P10721, D816V/V560G), sequence (P10721 26-976 V560G/D816V): as the sequence (P10721 26-976 D816V) above, with V535G counted along it
# wt KIT kinase, sequence (P10721 26-976): as the sequence (P10721 26-976 D816V) above, with V791D counted along it
# PDGFRα D842V, sequence (P16234 24-1089 D842V): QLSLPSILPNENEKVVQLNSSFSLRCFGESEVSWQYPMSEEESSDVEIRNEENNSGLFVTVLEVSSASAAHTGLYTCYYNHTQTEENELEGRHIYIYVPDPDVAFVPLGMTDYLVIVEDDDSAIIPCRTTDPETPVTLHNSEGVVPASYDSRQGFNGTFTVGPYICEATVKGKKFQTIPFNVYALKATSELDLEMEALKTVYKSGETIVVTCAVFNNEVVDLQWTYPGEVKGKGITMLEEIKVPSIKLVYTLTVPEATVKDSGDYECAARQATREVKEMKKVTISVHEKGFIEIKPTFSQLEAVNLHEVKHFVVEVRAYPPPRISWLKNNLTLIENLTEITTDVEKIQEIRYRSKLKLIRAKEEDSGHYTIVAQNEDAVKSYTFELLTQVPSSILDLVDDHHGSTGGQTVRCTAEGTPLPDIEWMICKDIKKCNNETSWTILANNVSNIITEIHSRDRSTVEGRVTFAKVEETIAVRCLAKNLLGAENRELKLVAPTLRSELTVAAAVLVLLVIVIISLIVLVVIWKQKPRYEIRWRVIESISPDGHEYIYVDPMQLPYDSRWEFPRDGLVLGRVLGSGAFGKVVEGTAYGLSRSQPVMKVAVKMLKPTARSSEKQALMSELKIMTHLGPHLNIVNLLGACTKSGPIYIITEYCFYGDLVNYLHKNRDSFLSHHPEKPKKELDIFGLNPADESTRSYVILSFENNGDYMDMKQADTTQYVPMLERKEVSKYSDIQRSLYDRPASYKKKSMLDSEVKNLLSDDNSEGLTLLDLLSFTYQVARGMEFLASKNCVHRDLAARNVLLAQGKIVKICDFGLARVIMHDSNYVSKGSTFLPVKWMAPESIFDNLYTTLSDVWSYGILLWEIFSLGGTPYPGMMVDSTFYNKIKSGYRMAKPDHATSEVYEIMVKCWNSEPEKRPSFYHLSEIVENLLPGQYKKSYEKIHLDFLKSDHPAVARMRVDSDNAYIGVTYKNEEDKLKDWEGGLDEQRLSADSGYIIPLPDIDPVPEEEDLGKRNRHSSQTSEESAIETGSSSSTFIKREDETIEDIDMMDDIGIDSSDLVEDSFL
"clearance ([1]; Sprague-Dawley, blood, rat, iv 1 mg/kg, read-out: Rat IV PK Cl) [mL/min/kg]","bioavailability ([1]; Sprague-Dawley, blood, rat, oral 2.5 mg/kg vs iv 1 mg/kg) [%]","Rat IV PK unbound clearance (Clu) ([1]; iv 1 mg/kg, Clu=Cl/fu,plasma) [mL/min/kg]",IC50 (CYP2C9) [µM],"IC50 (CYP3A4; as measured according to Example 5, substrate not stated (embodiment 14), read-out: IC50 for CYP3A4) [µM]","IC50 (CYP3A4; pooled human liver microsomes, substrate midazolam, read-out: CYP3A4 IC50 (μM) midazolam) [µM]","IC50 (CYP3A4; pooled human liver microsomes, substrate testosterone, read-out: CYP3A4 IC50 (μM) testosterone) [µM]",IC50 (KIT D816V [2]) [µM],IC50 (PDGFRα D842V) [µM],IC50 (KIT D816V [3]) [nM],Kd (wt KIT kinase) [µM],SMILES
12,80,582,7.13,< 10,≥ 10,≥ 10,,,,,"C[C@](N)(c1ccc(F)cc1)c1cnc(N2CCN(c3ncnn4cc(-c5cnn(CCO)c5)cc34)CC2)nc1 [Compound 4, (S)-2-(4-(4-(4-(5-(1-amino-1-(4-fluorophenyl)ethyl)pyrimidin-2-yl)piperazin-1-yl)pyrrolo[2,1-f][1,2,4]triazin-6-yl)-1H-pyrazol-1-yl)ethanol]"
,,,,,,,≤ 0.0003,≤ 0.0003,< 4.5,0.0151 to 0.02,"CCn1cc(-c2cc3c(N4CCN(c5ncc([C@@](C)(N)c6ccc(F)cc6)cn5)CC4)ncnn3c2)cn1 [Compound 63, reference compound]"
